Key:
EPO and VEGF = assay: Phase 1a multiple ascending dose study: circulating EPO and VEGF levels in serum; type: in vivo, human; details: serum samples
[1] = Phase 1a multiple ascending dose study (oral solution): safety and tolerability; type: in vivo, human
Protocol: The primary objective of the study was to assess the safety and tolerability of ascending doses of Compound 1 after multiple oral doses administration. The safety endpoints included TEAE incidence and severity, clinically significant changes in vital signs, ECG parameters, clinical laboratory tests and physical examination.
Safety and tolerability were assessed by review of vital signs, laboratory results (serum chemistry, hematology and urinalysis), ECG, physical examination findings, AEs, and PK assessment following the Day 1 and Day 7 doses. […] One event of vomiting led to early trial discontinuation in the 240 mg dose group.

pKa of Compound 1 = type: physicochemical; details: two basic groups
Description: The pKa value expresses the strength of acids and base, i.e. the tendency for an acid to lose a proton or a base to accept a proton (Bronsted J. N. Rec. trav. Chim. (47), 718, 1923) and the protonation and deprotonation of the basic groups in the compound has a marked effect upon the solubility of Compound 1 in aqueous media. Consequently, the solubility of Compound 1 is highly dependent upon pH.

Question: What does the source list for `CC(C)(C)OC(=O)N1CCN(Cc2ccn(Cc3ccc(Cl)cc3)c(=O)c2O)CC1` [Compound 1, tert-butyl 4-((1-(4-chlorobenzyl)-3-hydroxy-2-oxo-1,2-dihydropyridin-4-yl)methyl)piperazine-1-carboxylate]?
Answer: Effects on circulating EPO and VEGF levels (EPO and VEGF): no Compound 1-related effects; Tolerability ([1]; 240 mg dose once daily): less well tolerated; Tolerability ([1]; doses up to 120 mg once daily for 8 days): generally well tolerated; pKa (pKa of Compound 1): 6.5

— patent US20220175766A1, “COMPOSITIONS AND METHODS OF TREATMENT” (GB004, Inc., priority 2019, published 2022)
